Patent US5866380A, “Methods for bioconversion of ferulic acid to vanillic acid or vanillin and for the bioconversion of vanillic acid to vanillin using filamentous fungi” (Institut National De La Recherche Agronomique-I.N.R.A., priority 1994, dated 1999)

Columns and labels:
[1] = tested on: fungi; assay: toxicity of ferulic acid, vanillic acid and vanillin to the fungi; format: cell-based, filamentous fungi; conditions: for concentration toxic to the fungi: concentration in the culture
[2] = binding of produced vanillin to XAD2 resin in Phanerochaete chrysosporium culture (experiment 2); format: physicochemical; conditions: experiment 2, XAD2 10% (weight/volume), 6 days of growth
Description: The strain used is the Phanerochaete chrysosporium strain MIC 247, deposited on 31st Aug. 1994 with the Collection Nationale de Culture de Microorganismes under the number I-1471. This strain was cultured as described in Example 1 above.
Vanillic acid was added sequentially, namely: 0.3 g/l at the end of 3 days of culture, then 0.3 g/l every day.
For experiment 2, sterile resin XAD2 (Amberlite) is added in the proportion of 10% (weight/volume) after 3 days+6 h of culture of the fungus, that is to say 6 h after adding vanillic acid (at a concentration of 300 mg/l).
Vanillic acid and its metabolites are assayed as described in Example 1 above.

[3] = binding of vanillin by nonionic resin XAD2; format: physicochemical

Row | Compound | concentration toxic to the fungi [1] | toxicity for the metabolism of the fungus (in words) ([1]; strain that accumulates vanillin (Nidulariales)) | vanillin produced that has been bound to the resin [2] | vanillin bound by the resin [3]
1 | COc1cc(/C=C/C(=O)O)ccc1O [ferulic acid] | above 2 g/l |  |  | 
2 | COc1cc(C(=O)O)ccc1O [vanillic acid] | above 2 g/l |  |  | 
3 | COc1cc(C=O)ccc1O [vanillin] | above 2 g/l | very quickly becomes toxic for the metabolism of the fungus | 94% | 98%
